In US8802674B2, “Aminopyrimidine derivatives as LRRK2 modulators” (Genentech, Inc., priority 2011, dated 2014):

Target: LRRK2 (Homo sapiens (Human), UniProt Q5S007, G2019S)
Test: In Vitro LRRK2 LabChip Assay
Assay type: biochemical
Description: In Vitro LRRK2 LabChip Assay
This assay was used to determine a compound's potency in inhibiting activity of LRRK2 by determining, Kiapp, IC50, or percent inhibition values. In a polypropylene plate, LRRK2, fluorescently-labeled peptide substrate, ATP and test compound were incubated together. Using a LabChip 3000 (Caliper Life Sciences), after the reaction the substrate was separated by capillary electrophoresis into two populations: phosphorylated and unphosphorylated. The relative amounts of each were quantitated by fluorescence intensity. LRRK2 Ki was determined according to the equation: Y=V0*(1−((x+Ki*(1+S/Km)+Et)/(2*Et)−(((x+Ki*(1+S/Km)+Et)^2−(4*Et*x))^0.5)/(2*Et))). Ki values in Table 4 and elsewhere herein are shown in μM.
Assay conditions and materials used were as follows:
Compound Plate Preparation:
For serial dilutions, 34.6 μl DMSO was added to columns 3-24. For the assay controls, 37.5 μl DMSO was added to columns 1 and 2 of rows A and P. a,d and 50 μl 25 μM G-028831 (Staurosporine) was added to columns 1 and 2, row B. For the samples: to start at 100 μM, 37.5 μl DMSO was to columns 1 and 2, then 12.5 μl 10 mM compound; to start at 10 μM, 78 μl DMSO was added to columns 1 & 2, then 2 μl 10 mM compound; and to start at 1 μM, 25 μM compound (2 μl 10 mM cmpd+798 μl DMSO) was added to empty columns 1 and 2. A Precision instrument was used to perform 1:3.16 serial dilutions (“PLK_BM_serial_halflog”).
ATP was diluted to 282.1 μM in Complete Kinase Buffer (final concentration was 130 μM).
Total and Blank Preparation:
In Complete Reaction Buffer, substrate was diluted to 4 μM. Equal volumes of Complete Reaction Buffer and 4 μM substrate were combined to obtain the blank. Equal volumes of Complete Reaction Buffer and 4 μM substrate were combined and to the combined solution was added 2× final LRRK2 concentration.
To a 50 μl polypropylene plate, 5 μl/well buffer/substrate was added by hand to Blank wells. A Biomek FX was used to start the kinase reaction (“PLK SAR 23 ATP”). The following were added to the appropriate wells:
5 μl/well compound/ATP in Assay Plate;
5 μl/well kinase/substrate in Assay Plate;
The plate was incubated for 2 hours in the dark. Biomek FX was used to stop the kinase reaction (“PLK Stop”), and 10 μl/well Stop solution was added to the Assay Plate. Results were read on the LabChip 3000.
The LabChip 3000 was run using the job “LRRK2IC50” with the following job settings: […]

LRRK2, sequence (Q5S007 970-2527 G2019S limits assumed): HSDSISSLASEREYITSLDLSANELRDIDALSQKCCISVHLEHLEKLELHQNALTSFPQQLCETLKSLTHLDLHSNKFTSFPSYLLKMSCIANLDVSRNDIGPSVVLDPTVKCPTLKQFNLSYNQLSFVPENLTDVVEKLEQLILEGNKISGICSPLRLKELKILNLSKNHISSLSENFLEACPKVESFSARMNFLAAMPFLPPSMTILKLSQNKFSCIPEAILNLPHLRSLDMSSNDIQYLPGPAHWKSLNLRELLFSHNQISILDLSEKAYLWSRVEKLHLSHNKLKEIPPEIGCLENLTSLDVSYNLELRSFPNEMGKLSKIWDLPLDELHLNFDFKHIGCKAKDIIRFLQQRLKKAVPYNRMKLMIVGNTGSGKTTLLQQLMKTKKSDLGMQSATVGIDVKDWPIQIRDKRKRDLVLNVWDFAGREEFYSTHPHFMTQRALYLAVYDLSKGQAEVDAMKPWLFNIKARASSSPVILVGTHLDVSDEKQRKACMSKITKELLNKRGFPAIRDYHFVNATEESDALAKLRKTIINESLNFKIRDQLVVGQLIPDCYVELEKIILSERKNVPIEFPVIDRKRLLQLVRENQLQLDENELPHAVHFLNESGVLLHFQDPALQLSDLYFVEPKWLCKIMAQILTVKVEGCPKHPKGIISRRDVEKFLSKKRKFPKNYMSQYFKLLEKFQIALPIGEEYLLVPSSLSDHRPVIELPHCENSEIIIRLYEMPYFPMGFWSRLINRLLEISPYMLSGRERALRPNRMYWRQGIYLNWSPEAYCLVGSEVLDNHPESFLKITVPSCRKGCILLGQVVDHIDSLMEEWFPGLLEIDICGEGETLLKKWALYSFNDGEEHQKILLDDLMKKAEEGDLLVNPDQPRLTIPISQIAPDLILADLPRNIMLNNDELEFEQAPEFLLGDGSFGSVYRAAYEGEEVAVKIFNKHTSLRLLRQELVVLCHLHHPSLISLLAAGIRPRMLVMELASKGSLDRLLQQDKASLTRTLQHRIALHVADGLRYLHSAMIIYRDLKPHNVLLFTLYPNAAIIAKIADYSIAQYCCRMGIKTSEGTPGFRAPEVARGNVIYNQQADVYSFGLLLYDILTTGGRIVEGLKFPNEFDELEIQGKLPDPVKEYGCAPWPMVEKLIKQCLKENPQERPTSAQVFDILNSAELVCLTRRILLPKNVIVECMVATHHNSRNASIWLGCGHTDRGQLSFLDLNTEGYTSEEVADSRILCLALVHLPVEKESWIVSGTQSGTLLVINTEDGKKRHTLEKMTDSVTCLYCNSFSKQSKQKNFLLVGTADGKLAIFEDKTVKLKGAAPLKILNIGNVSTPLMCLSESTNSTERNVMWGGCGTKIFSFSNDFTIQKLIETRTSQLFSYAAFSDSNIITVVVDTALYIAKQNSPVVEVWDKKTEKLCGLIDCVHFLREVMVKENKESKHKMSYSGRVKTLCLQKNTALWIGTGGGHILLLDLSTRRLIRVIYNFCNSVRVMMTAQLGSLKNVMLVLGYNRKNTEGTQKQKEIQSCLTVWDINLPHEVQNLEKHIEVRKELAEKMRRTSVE

Ki (Table 4) [nM] | Ki (Table 6) [nM] | Compound
9.4 | – | COCCNc1nc(Nc2ccc(C(=O)N3CCOCC3)cc2OC)ncc1Cl [Example 105, {4-[5-Chloro-4-(2-methoxy-ethylamino)-pyrimidin-2-ylamino]-3-methoxy-phenyl}-morpholin-4-yl-methanone]
– | 4.5 | CCNc1nc(Nc2ccc(C(=O)N3CCOCC3)cc2OC(C)C)ncc1C(F)(F)F [Example 310, (4-(4-(ethylamino)-5-(trifluoromethyl)pyrimidin-2-yl-amino)-3-isopropoxyphenyl) (morpholino) methanone]
1.8 | – | CCNc1nc(Nc2ccc(C(=O)N3CCOCC3)c(F)c2OC)ncc1C(F)(F)F [Example 241, (4-(4-(ethylamino)-5-(trifluoromethyl)pyrimidin-2-ylamino)-2-fluoro-3-methoxyphenyl) (morpholino)methanone]
– | 3.3 | CCN(CC)C(=O)c1ccc(Nc2ncc(C(F)(F)F)c(NC)n2)c(OC)c1 [Example 275, N,N-Diethyl-3-methoxy-4-(4-methylamino-5-trifluoromethyl-pyrimidin-2-ylamino)-benzamide]
5.1 | – | CNc1nc(Nc2ccc(C(=O)N3CC[C@@H](O)C3)cc2OC)ncc1Br [Example 77, [4-(5-Bromo-4-methylamino-pyrimidin-2-ylamino)-3-methoxy-phenyl]-((R)-3-hydroxy-pyrrolidin-1-yl)-methanone]
26.4 | – | COc1cc(C(=O)N2CCOCC2)ccc1Nc1ncc(Cl)c(NCCS(C)(=O)=O)n1 [Example 219, {4-[5-Chloro-4-(2-methanesulfonyl-ethylamino)-pyrimidin-2-ylamino]-3-methoxy-phenyl}-morpholin-4-yl-methanone]
5.6 | – | COc1cc(CC(=O)N2CCOCC2)ccc1Nc1ncc(Br)c(OC)n1 [Example 226, 2-[4-(5-Bromo-4-methoxy-pyrimidin-2-ylamino)-3-methoxy-phenyl]-1-morpholin-4-yl-ethanone]
4.4 | – | CNc1nc(Nc2ccc(C(=O)N3CCOCC3CO)cc2OC)ncc1Cl (stereo not drawn) [Example 40, [4-(5-Chloro-4-methylamino-pyrimidin-2-ylamino)-3-methoxy-phenyl]-(3-hydroxymethyl-morpholin-4-yl)-methanone]
7.8 | – | CNc1nc(Nc2cc(OC)c(C(=O)N3CCC(F)(F)CC3)cc2Cl)ncc1Cl [Example 146, [5-Chloro-4-(5-chloro-4-methylamino-pyrimidin-2-ylamino)-2-methoxy-phenyl]-(4,4-difluoro-piperidin-1-yl)-methanone]
2.7 | – | CNc1nc(Nc2ccc(C(=O)N3CC(N4CCOCC4)C3)cc2OC)ncc1Cl [Example 89, [4-(5-Chloro-4-methylamino-pyrimidin-2-ylamino)-3-methoxy-phenyl]-(3-morpholin-4-yl-azetidin-1-yl)-methanone]
33.3 | – | CNc1nc(Nc2cc(OC)c(C(=O)N3C[C@@H](C)N[C@@H](C)C3)cc2Cl)ncc1Cl [Example 172, [5-Chloro-4-(5-chloro-4-methylamino-pyrimidin-2-ylamino)-2-methoxy-phenyl]-((3R,5S)-dimethyl-piperazin-1-yl)-methanone]
9.6 | – | CCNC(=O)c1ccc(Nc2ncc(C#N)c(NC)n2)c(OC)c1 [Example 203, 4-(5-Cyano-4-methylamino-pyrimidin-2-ylamino)-N-ethyl-3-methoxy-benzamide]
2.7 | – | COc1cc(C(=O)N2CCOCC2)ccc1Nc1ncc(Cl)c(NCC2CC2)n1 [Example 80, {4-[5-Chloro-4-(cyclopropylmethyl-amino)-pyrimidin-2-ylamino]-3-methoxy-phenyl}-morpholin-4-yl-methanone]
2.5 | – | COc1nc(Nc2ccc(C(=O)N3CCOCC3)cc2OC2CC2)ncc1Br [Example 218, [4-(5-Bromo-4-methoxy-pyrimidin-2-ylamino)-3-cyclopropoxy-phenyl]-morpholin-4-yl-methanone]
2.7 | – | CNc1nc(Nc2cc(F)c(C(=O)N3CCC(OC)C3)cc2OC)ncc1C(F)(F)F (stereo not drawn) [Example 247, (2-fluoro-5-methoxy-4-(4-(methylamino)-5-(trifluoromethyl)pyrimidin-2-ylamino)phenyl)(3-methoxypyrrolidin-1-yl)methanone]
